Patent US20260345647A1, “AST-3424 COMBINATION FOR TREATING LEUKEMIA AND LYMPHOMA” (ASCENTAWITS PHARMACEUTICALS, LTD., priority 2022, published 2026)
Entries after “also recorded” stand apart in the source; their conditions may differ. Where a name gives a salt, the structure may show the parent alone. Read-outs that look alike come from different tables or passages of the source. Values belong to the compound of their own block, whether it stands above or below them.

How the values were obtained:
[1] = tested on: five cell lines including CCRF-CEM, PF-382, Jurkat, Clone E6-1, SUP-T1, and MOLT-4; assay: In vitro cell proliferation assay, monotherapy, summary over five cell lines; format: cell-based, human; conditions: for inhibitory effects on cell proliferation: monotherapy, five cell lines
Method: (§1) On day 1, cells were seeded in 96-well cell culture plates (at 180 μL/well).
(§2) On day 2, 20 μL of a 10-fold test concentration of the working solution of the compound (AST-3424) was added. The cell plates were gently agitated, and were then placed in an incubator at 37 °C for further culture.
(§3) On day 3, 20 μL of a 10-fold test concentration of the solution of the compound (cytarabine and daunorubicin) was added. The cell plates were gently agitated, and were then placed in an incubator at 37 °C for further 72 hours.
(§4) After incubation, to the cell plates was added a reagent prepared according to the Protocol for a […] CellTiter-Glo Reagent (50 μL/well). The plates were thoroughly agitated and were then incubated at room temperature in the dark for 10 minutes.
(§5) The cell plates were placed in a plate reader for analysis to detect chemiluminescence and record the data.
(§6) The readings in each well should be converted into cell viability, which was calculated by the following formula:
(§7) • 1. MOLT-4 and MOLT-3 were derived from a patient with acute lymphoblastic leukemia in relapse who had previously received polydrug combination chemotherapy. The MOLT-4 cell line was originated from T lymphocytes, wherein there is a G→A mutation in Codon 248 of the p53 gene with no expression of p53, immunoglobulin or Epstein-Barr virus, resulting in high levels of terminal deoxyribosyl transferase, and expression of CD1 (49%), CD2 (35%), CD3 A (26%) B (33%) C (34%), CD4 (55%), CD5 (72%), CD6 (22%), and CD7 (77%). The cell is a human acute lymphoblastic leukemia cell, and the corresponding disease is human T-cell acute lymphoblastic leukemia, or T-ALL. • 2. PF-382 is a human T-cell acute lymphoblastic leukemia cell, and the corresponding disease is human T-cell acute lymphoblastic leukemia, or T-ALL. • 3. Jurkat, Clone E6-1 is a clone of the Jurkat-FHCRC cell line, a derivative of the Jurkat cell line, which was established from the peripheral blood of a patient suffering from T-cell acute leukemia. It is a human T lymphocytic leukemia cell, and the corresponding disease is T-ALL. • 4. SUP-T1 is a human T lymphoblastoma cell, and the corresponding disease is T-cell Lymphoblastic Lymphoma (T-LBL). • 5. CCRF-CEM is a human acute lymphoblastic leukemia, T lymphocyte serum culture cell, which was obtained in November 1964 from the peripheral blood leukocytes of a patient suffering from acute lymphoblastic leukemia. The cell is a human T-cell acute lymphoblastic leukemia cell, and the corresponding disease is T-cell acute lymphoblastic leukemia, or T-ALL.

TGF-β signaling pathway = conditions: cited from earlier work
PF-382 cells [2] = assay: In vitro cell proliferation assay, monotherapy (CellTiter-Glo); format: cell-based; conditions: Homo sapiens
Method: as §1, §2, §3, §4, §5, §6, §7

CCRF-CEM cells [3] = assay: as above; format: cell-based; conditions: Homo sapiens
Method: as §1, §2, §3, §4, §5, §6, §7

Jurkat, Clone E6-1 cells [4] = assay: as above; format: cell-based; conditions: Homo sapiens
Method: as §1, §2, §3, §4, §5, §6, §7

MOLT-4 cells [5] = assay: as above; format: cell-based; conditions: Homo sapiens
Method: as §1, §2, §3, §4, §5, §6, §7

SUP-T1 cells [6] = assay: as above; format: cell-based; conditions: Homo sapiens
Method: as §1, §2, §3, §4, §5, §6, §7

tumor cells = conditions: Transwell; MMP-9; cited from earlier work
liver cancer cells [7] = conditions: flow cytometry; cited from earlier work
liver cancer cells [8] = conditions: flow cytometry; Bax, Caspase3, PARP; cited from earlier work
PF-382 cells [9] = assay: In vitro cell proliferation assay, combination therapy (CellTiter-Glo); format: cell-based, human; conditions: 0.64 and 2.5 nM AST-3424
Method: as §1
(§8) On day 2, 10 μL of a 20-fold test concentration of the AST-3424 solution (20-fold concentration of either of the two concentrations IC25 and IC10) was added. The cell plates were gently agitated, and were then placed in an incubator at 37 °C for further culture.
(§9) On day 3, to the combination therapy wells was added 10 μL of a 20-fold test concentration of the compound (cytarabine or daunorubicin) (20-fold concentration of each of the three concentrations IC50, IC25, and ICs), and to the monotherapy wells was added 10 μL of a culture medium containing 2% DMSO. The cell plates were gently agitated, and were then placed in an incubator at 37 °C for further 72 h.
(§10) After incubation, a reagent prepared according to the instructions for the CellTiter-Glo Reagent was added (at 50 μL/well). The cell plates were agitated thoroughly and were then incubated at room temperature in the dark for 10 minutes.
(§11) The cell plate was placed in a plate reader for analysis to detect chemiluminescence and record the data.
(§12) The readings in each well should be converted into cell viability, which was calculated by the formula as described in section 1.1.
(§13) The final viability percentages under different conditions were plotted into column charts.

CCRF-CEM cells [10] = assay: as above; format: cell-based, human; conditions: 0.1 nM and 1 nM AST-3424
Method: as §1, §8, §9, §10, §11, §12, §13

Jurkat, Clone E6-1 cells [11] = assay: as above; format: cell-based, human; conditions: 0.64 nM and 16 nM AST-3424
Method: as §1, §8, §9, §10, §11, §12, §13

MOLT-4 cells [12] = assay: as above; format: cell-based, human
Method: as §1, §8, §9, §10, §11, §12, §13

SUP-T1 cells [13] = assay: as above; format: cell-based, human; conditions: 0.13 nM and 1 nM AST-3424
Method: as §1, §8, §9, §10, §11, §12, §13

cancer cells = conditions: cited from earlier work
PLC/PRF/5 = conditions: PLC/PRF/5, high AKR1C3 expression; cited from earlier work
HepG2 = conditions: HepG2, high AKR1C3 expression; cited from earlier work
[14] = Clinical plasma concentration (dose comparison and conversion); format: in vivo
Text: Both daunorubicin and cytarabine are drugs used in clinical practice to treat leukemia or other tumors.

[15] = cited from earlier work
[16] = tested on: neuroblastoma and rhabdomyosarcoma; conditions: cited from earlier work
[17] = tested on: acute lymphoblastic leukemia; conditions: cited from earlier work
[18] = experiments that were conducted previously, read-out: IC50 (superscript 2)
[19] = monotherapy, 72 hours, read-out: IC50

- IC50 (CCRF-CEM cells [3]; [18]): 14.9 nM
- IC50 (CCRF-CEM cells [3]; [19]): 3.68 nM
- IC50 (Jurkat, Clone E6-1 cells [4]; [18]): 24 nM
- IC50 (Jurkat, Clone E6-1 cells [4]; [19]): 4620 nM
- IC50 (MOLT-4 cells [5]; [18]): 10 nM
- IC50 (MOLT-4 cells [5]; [19]): 8.04 nM
Structure (SMILES): C[C@H](OP(=O)(N1CC1)N1CC1)c1ccc([N+](=O)[O-])c(Oc2cccc(C(=O)N(C)C)c2)c1 [AST-3424]
- in vitro cytotoxicity compared with daunorubicin and cytarabine ([1]; four cell lines except Jurkat, Clone E6-1): superior to that of daunorubicin and cytarabine
- inhibitory effects on cell proliferation [1]: good inhibitory effects
- effect on TGF-β signaling pathway / proliferation (TGF-β signaling pathway): could reduce the proliferation effect by inhibiting the TGF-β signaling pathway
- IC50 (PF-382 cells [2]; [18]): 3 nM
- IC50 (PF-382 cells [2]; [19]): 4.09 nM
- IC50 (SUP-T1 cells [6]; [18]): 3.7 nM
- IC50 (SUP-T1 cells [6]; [19]): 2.47 nM
- migration and invasion of tumor cells (tumor cells): could inhibit the migration and invasion of tumor cells
- cell cycle block (liver cancer cells [7]): could block the cells in the S phase
- apoptosis induction (liver cancer cells [8]): may induce apoptosis by upregulating Bax and Caspase3 proteins and downregulating the PARP protein
- effect on proliferation, AST-3424 monotherapy (PF-382 cells [9]): no significant effect
- effect on proliferation, AST-3424 monotherapy (CCRF-CEM cells [10]): no effect
- effect on proliferation, AST-3424 monotherapy (Jurkat, Clone E6-1 cells [11]): no significant effect
- effect on proliferation, AST-3424 monotherapy (MOLT-4 cells [12]; 3.2 nM and 6.4 nM AST-3424): no significant effect
- effect on proliferation, AST-3424 monotherapy (SUP-T1 cells [13]): no effect
- toxicity to cancer cells (cancer cells; AST-3424 itself (prodrug)): low toxicity to cancer cells
- dependence of potency on AKR1C3 expression level (cancer cells; animal models and in vitro pharmacological experiments): dependent on the level of AKR1C3 expression; also recorded: positively correlated with AKR1C3 expression levels
- inhibitory effects (PLC/PRF/5): excellent inhibitory effects
- inhibitory effects (HepG2): excellent inhibitory effects

- IC50 (CCRF-CEM cells [3]; [19]): 82.2 nM
- IC50 (Jurkat, Clone E6-1 cells [4]; [19]): 100 nM
- IC50 (MOLT-4 cells [5]; [19]): 120 nM
- concentration ([14]; 1.8-3 g/m^2, administration with 12 times, converted from steady concentration, read-out: Molar concentration after conversion (steady concentration)): 32 to 97 µM
Structure (SMILES): Nc1ccn([C@@H]2O[C@H](CO)[C@@H](O)[C@@H]2O)c(=O)n1 [Cytarabine, cytarabine, reference compound]
- inhibitory effects on cell proliferation [1]: good inhibitory effects
- IC50 (PF-382 cells [2]; [19]): 26.4 nM
- IC50 (SUP-T1 cells [6]; [19]): 856 nM
- Steady plasma concentration ([15]; 1.8-3 g/m^2, administration with 12 times, steady concentration): 8 to 24 µg/mL

- IC50 (CCRF-CEM cells [3]; [19]): 30.7 nM
- IC50 (Jurkat, Clone E6-1 cells [4]; [19]): 41 nM
- IC50 (MOLT-4 cells [5]; [19]): 24.2 nM
Structure (SMILES): COc1cccc2c1C(=O)c1c(O)c3c(c(O)c1C2=O)C[C@@](O)(C(C)=O)C[C@@H]3O[C@H]1C[C@H](N)[C@H](O)[C@H](C)O1 [Daunorubicin hydrochloride, daunorubicin hydrochloride, reference compound]
- IC50 (PF-382 cells [2]; [19]): 14.2 nM
- IC50 (SUP-T1 cells [6]; [19]): 30.6 nM

- Cmax ([14]; human, plasma, 44 mg/m^2, administration on day 1, 3, 5, converted from Cmax, read-out: Molar concentration after conversion (Cmax)): 49 µM
Structure (SMILES): COc1cccc2c1C(=O)c1c(O)c3c(c(O)c1C2=O)C[C@@](O)(C(C)=O)C[C@@H]3O[C@H]1C[C@H](N)[C@H](O)[C@H](C)O1 [daunorubicin]
- inhibitory effects on cell proliferation [1]: good inhibitory effects
- therapeutic effects [16]: excellent therapeutic effects
- Plasma Cmax ([15]; 44 mg/m^2, administration on day 1, 3, 5, Cmax): 26 µg/mL
- potency on cell proliferation, daunorubicin (MOLT-4 cells [12]; 40 nM daunorubicin): very significant potency
- remission rate ([17]; acute lymphoblastic leukemia): high remission rate
- side effects ([17]; clinical use): severe side effects
